# Test results published in patent publication US20120029187A1, “HALOALKYLSULFONANILIDE DERIVATIVE” (Nissan Chemical Industries, Ltd., priority 2009, published 2012).
# Key:
# Assay type in all cases: in vivo
# transplanted rice = test: Test Example 1: preemergence treatment under submerged conditions, effect on crop; settings: dose 2.52 g/a
# Procedure, shortened: (§1)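 Alluvial soil was flooded to 4 cm, sown with barnyardgrass, bulrush and ducksalad, and planted with 2.5-leaf rice seedlings. On the seeding day, water-diluted emulsifiable concentrates were applied to the water surface at set doses (g/a). After three weeks in a 25 to 30° C. greenhouse, mortality was scored 0–5.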
# velvetleaf [1] = test: Test Example 4: herbicidal effect in foliage treatment; settings: dose 3.2 g/a
# Procedure, shortened: (§2)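 Seeds were spot-sown in boxes of sterilized diluvial soil and raised in a greenhouse (25 to 30° C) for 14 days before a single foliar application. Compounds were applied as emulsifiable concentrates diluted with water, at predetermined doses in g/a. Injury was graded three weeks post-spray.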
# large crabgrass [2] = test: as above; settings: dose 3.2 g/a
# Procedure, shortened: as §2
# Italian ryegrass [3] = test: as above; settings: dose 3.2 g/a
# Procedure, shortened: as §2
# water foxtail [4] = test: as above; settings: dose 3.2 g/a
# Procedure, shortened: as §2
# giant foxtail [5] = test: as above; settings: dose 3.2 g/a
# Procedure, shortened: as §2
# barnyardgrass [6] = test: as above; settings: dose 3.2 g/a
# Procedure, shortened: as §2
# common lambsquater [7] = test: as above; settings: dose 3.2 g/a
# Procedure, shortened: as §2
# posumbu knotweed [8] = test: as above; settings: dose 3.2 g/a
# Procedure, shortened: as §2
# wild oat = test: as above; settings: dose 3.2 g/a, three weeks after the application
# Procedure, shortened: as §2
# common ragweed [9] = test: as above; settings: dose 3.2 g/a
# Procedure, shortened: as §2
# redroot pigweed [10] = test: as above; settings: dose 3.2 g/a
# Procedure, shortened: as §2
# common chickweed [11] = test: as above; settings: dose 3.2 g/a
# Procedure, shortened: as §2
# beadstraw = test: as above; settings: dose 3.2 g/a
# Procedure, shortened: as §2
# barnyardgrass [12] = test: Test Example 1: herbicidal effects in preemergence treatment under submerged conditions; settings: dose 2.52 g/a
# Procedure, shortened: as §1
# ducksalad [13] = test: as above; settings: dose 2.52 g/a
# Procedure, shortened: as §1
# bulrush [14] = test: as above; settings: dose 2.52 g/a
# Procedure, shortened: as §1
# barnyardgrass [15] = test: Test Example 2: herbicidal effects during the vegetation period under submerged conditions; settings: treatment during the vegetation period under submerged conditions; dose 2.52 g/a
# Procedure, shortened: (§3)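 Barnyardgrass, bulrush and ducksalad were co-sown in alluvial soil flooded to 4 cm and grown in a greenhouse at 25 to 30° C. At the 1- or 2-leaf stage, water-diluted emulsifiable concentrates went onto the water surface at set doses (g/a). Herbicidal effect was scored three weeks later on a graded scale.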
# ducksalad [16] = test: as above; settings: treatment during the vegetation period under submerged conditions; dose 2.52 g/a
# Procedure, shortened: as §3
# bulrush [17] = test: as above; settings: treatment during the vegetation period under submerged conditions; dose 2.52 g/a
# Procedure, shortened: as §3
# velvetleaf [18] = test: Test Example 3: herbicidal effects in soil treatment; settings: dose 3.2 g/a
# Procedure, shortened: (§4)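 Seeds were sown in sterilized diluvial soil and covered with about 1.5 cm of soil. Compounds, formulated as emulsifiable concentrates and diluted with water, were sprayed evenly over the soil surface at set doses in g/a. Herbicidal effect was scored on a rating scale three weeks later.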
# large crabgrass [19] = test: as above; settings: dose 3.2 g/a
# Procedure, shortened: as §4
# Italian ryegrass [20] = test: as above; settings: dose 3.2 g/a
# Procedure, shortened: as §4
# water foxtail [21] = test: as above; settings: dose 3.2 g/a
# Procedure, shortened: as §4
# giant foxtail [22] = test: as above; settings: dose 3.2 g/a
# Procedure, shortened: as §4
# barnyardgrass [23] = test: as above; settings: dose 3.2 g/a
# Procedure, shortened: as §4
# common lambsquater [24] = test: as above; settings: dose 3.2 g/a
# Procedure, shortened: as §4
# posumbu knotweed [25] = test: as above; settings: dose 3.2 g/a
# Procedure, shortened: as §4
# common ragweed [26] = test: as above; settings: dose 3.2 g/a
# Procedure, shortened: as §4
# redroot pigweed [27] = test: as above; settings: dose 3.2 g/a
# Procedure, shortened: as §4
# common chickweed [28] = test: as above; settings: dose 3.2 g/a
# Procedure, shortened: as §4
# [29] = three weeks after the application
structure (smiles),measurement,setting,value
CCOC(=O)N(c1ccccc1CN1COC(C)(C(F)(F)F)C(Br)C1=O)S(=O)(=O)C(F)(F)F (centres unmarked) [II-75],"a: transplanted rice, effect on crop (evaluation scale 0-5)",transplanted rice,0 (mortality of less than 5% (almost ineffective))
same,"I: velvetleaf, herbicidal effect",velvetleaf [1]; [29],3 (mortality of at least 40% and less than 70%)
same,"D: large crabgrass, herbicidal effect",large crabgrass [2]; [29],1 (mortality of at least 5% and less than 20%)
same,"H: Italian ryegrass, herbicidal effect",Italian ryegrass [3]; [29],3 (mortality of at least 40% and less than 70%)
same,"G: water foxtail, herbicidal effect",water foxtail [4]; [29],2 (mortality of at least 20% and less than 40%)
same,"E: giant foxtail, herbicidal effect",giant foxtail [5]; [29],1 (mortality of at least 5% and less than 20%)
same,"A: barnyardgrass, herbicidal effect",barnyardgrass [6]; [29],4 (mortality of at least 70% and less than 90%)
same,"L: common lambsquater, herbicidal effect",common lambsquater [7]; [29],4 (mortality of at least 70% and less than 90%)
same,"M: posumbu knotweed, herbicidal effect",posumbu knotweed [8]; [29],1 (mortality of at least 5% and less than 20%)
same,"F: wild oat, herbicidal effect",wild oat,0 (mortality of less than 5% (almost ineffective))
same,"J: common ragweed, herbicidal effect",common ragweed [9]; [29],0 (mortality of less than 5% (almost ineffective))
same,"K: redroot pigweed, herbicidal effect",redroot pigweed [10]; [29],3 (mortality of at least 40% and less than 70%)
same,"N: common chickweed, herbicidal effect",common chickweed [11]; [29],3 (mortality of at least 40% and less than 70%)
same,"O: beadstraw, herbicidal effect",beadstraw; [29],5 (mortality of 90% or above (nearly complete death))
same,"A: barnyardgrass, herbicidal effect (evaluation scale 0-5)",barnyardgrass [12],5 (mortality of 90% or above (nearly complete death))
same,"C: ducksalad, herbicidal effect (evaluation scale 0-5)",ducksalad [13],5 (mortality of 90% or above (nearly complete death))
same,"B: bulrush, herbicidal effect (evaluation scale 0-5)",bulrush [14],5 (mortality of 90% or above (nearly complete death))
same,"A: barnyardgrass, herbicidal effect (evaluation scale 0-5)",barnyardgrass [15],5 (mortality of 90% or above (nearly complete death))
same,"C: ducksalad, herbicidal effect (evaluation scale 0-5)",ducksalad [16],5 (mortality of 90% or above (nearly complete death))
same,"B: bulrush, herbicidal effect (evaluation scale 0-5)",bulrush [17],5 (mortality of 90% or above (nearly complete death))
CCOC(=O)N(c1ccccc1CN1COC(C)(C(F)(F)F)CC1=O)S(=O)(=O)C(F)(F)F (centres unmarked) [II-49],"a: transplanted rice, effect on crop (evaluation scale 0-5)",transplanted rice,0 (mortality of less than 5% (almost ineffective))
same,"I: velvetleaf, herbicidal effect",velvetleaf [1]; three weeks after application,0 (mortality of less than 5% (almost ineffective))
same,"D: large crabgrass, herbicidal effect",large crabgrass [2]; three weeks after application,0 (mortality of less than 5% (almost ineffective))
same,"H: Italian ryegrass, herbicidal effect",Italian ryegrass [3]; three weeks after application,0 (mortality of less than 5% (almost ineffective))
same,"G: water foxtail, herbicidal effect",water foxtail [4]; three weeks after application,3 (mortality of at least 40% and less than 70%)
same,"E: giant foxtail, herbicidal effect",giant foxtail [5]; three weeks after application,3 (mortality of at least 40% and less than 70%)
same,"A: barnyardgrass, herbicidal effect",barnyardgrass [6]; three weeks after application,4 (mortality of at least 70% and less than 90%)
same,"L: common lambsquater, herbicidal effect",common lambsquater [7]; three weeks after application,3 (mortality of at least 40% and less than 70%)
same,"M: posumbu knotweed, herbicidal effect",posumbu knotweed [8]; three weeks after application,3 (mortality of at least 40% and less than 70%)
same,"J: common ragweed, herbicidal effect",common ragweed [9]; three weeks after application,3 (mortality of at least 40% and less than 70%)
same,"K: redroot pigweed, herbicidal effect",redroot pigweed [10]; three weeks after application,0 (mortality of less than 5% (almost ineffective))
same,"N: common chickweed, herbicidal effect",common chickweed [11]; three weeks after application,3 (mortality of at least 40% and less than 70%)
same,"O: beadstraw, herbicidal effect",beadstraw; three weeks after application,4 (mortality of at least 70% and less than 90%)
same,"A: barnyardgrass, herbicidal effect (evaluation scale 0-5)",barnyardgrass [12],5 (mortality of 90% or above (nearly complete death))
same,"C: ducksalad, herbicidal effect (evaluation scale 0-5)",ducksalad [13],5 (mortality of 90% or above (nearly complete death))
same,"B: bulrush, herbicidal effect (evaluation scale 0-5)",bulrush [14],5 (mortality of 90% or above (nearly complete death))
same,"I: velvetleaf, herbicidal effect (evaluation scale 0-5)",velvetleaf [18],0 (mortality of less than 5% (almost ineffective))
same,"D: large crabgrass, herbicidal effect (evaluation scale 0-5)",large crabgrass [19],3 (mortality of at least 40% and less than 70%)
same,"H: Italian ryegrass, herbicidal effect (evaluation scale 0-5)",Italian ryegrass [20],3 (mortality of at least 40% and less than 70%)
same,"G: water foxtail, herbicidal effect (evaluation scale 0-5)",water foxtail [21],5 (mortality of 90% or above (nearly complete death))
same,"E: giant foxtail, herbicidal effect (evaluation scale 0-5)",giant foxtail [22],3 (mortality of at least 40% and less than 70%)
same,"A: barnyardgrass, herbicidal effect (evaluation scale 0-5)",barnyardgrass [23],3 (mortality of at least 40% and less than 70%)
same,"L: common lambsquater, herbicidal effect (evaluation scale 0-5)",common lambsquater [24],2 (mortality of at least 20% and less than 40%)
same,"M: posumbu knotweed, herbicidal effect (evaluation scale 0-5)",posumbu knotweed [25],4 (mortality of at least 70% and less than 90%)
same,"J: common ragweed, herbicidal effect (evaluation scale 0-5)",common ragweed [26],4 (mortality of at least 70% and less than 90%)
same,"K: redroot pigweed, herbicidal effect (evaluation scale 0-5)",redroot pigweed [27],0 (mortality of less than 5% (almost ineffective))
same,"N: common chickweed, herbicidal effect (evaluation scale 0-5)",common chickweed [28],4 (mortality of at least 70% and less than 90%)
same,"A: barnyardgrass, herbicidal effect (evaluation scale 0-5)",barnyardgrass [15],5 (mortality of 90% or above (nearly complete death))
same,"C: ducksalad, herbicidal effect (evaluation scale 0-5)",ducksalad [16],5 (mortality of 90% or above (nearly complete death))
same,"B: bulrush, herbicidal effect (evaluation scale 0-5)",bulrush [17],5 (mortality of 90% or above (nearly complete death))
